Source: publication PMC1084349 (BMC Neuroscience, 2005)
Where a SMILES comes first, the peptide text is derived from it.

Biological target: T1, rTas1r2-rTas1r3 V738A (Rattus norvegicus, UniProt Q923K1+Q9Z0R7, V738A)
T1 construct: expressed in transfected cells; host or cells: HEK293T cells stably expressing Gα16gust44
T1 sequence (Q9Z0R7 20-843): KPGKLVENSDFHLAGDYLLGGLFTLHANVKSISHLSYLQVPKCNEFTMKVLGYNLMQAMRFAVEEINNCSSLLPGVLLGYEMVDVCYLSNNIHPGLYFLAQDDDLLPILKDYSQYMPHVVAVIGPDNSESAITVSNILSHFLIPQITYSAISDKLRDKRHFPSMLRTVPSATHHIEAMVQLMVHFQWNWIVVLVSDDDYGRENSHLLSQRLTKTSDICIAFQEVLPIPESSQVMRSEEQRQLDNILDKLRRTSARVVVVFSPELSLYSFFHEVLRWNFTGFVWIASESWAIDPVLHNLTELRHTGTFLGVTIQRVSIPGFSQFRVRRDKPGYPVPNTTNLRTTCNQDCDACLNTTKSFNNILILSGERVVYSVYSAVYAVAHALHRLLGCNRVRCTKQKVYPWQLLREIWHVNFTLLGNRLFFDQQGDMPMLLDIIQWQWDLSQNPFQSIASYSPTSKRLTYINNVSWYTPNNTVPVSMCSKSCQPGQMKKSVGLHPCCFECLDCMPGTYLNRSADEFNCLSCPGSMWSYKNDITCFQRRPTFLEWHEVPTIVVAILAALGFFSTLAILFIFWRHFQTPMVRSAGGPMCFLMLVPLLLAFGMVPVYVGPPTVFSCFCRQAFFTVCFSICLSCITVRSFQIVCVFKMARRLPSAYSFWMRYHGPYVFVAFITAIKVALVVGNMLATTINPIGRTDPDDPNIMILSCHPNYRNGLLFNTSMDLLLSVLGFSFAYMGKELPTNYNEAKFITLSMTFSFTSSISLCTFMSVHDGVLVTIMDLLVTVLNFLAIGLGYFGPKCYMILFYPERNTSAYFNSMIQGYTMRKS
T1 sequence (Q923K1 21-858 V738A): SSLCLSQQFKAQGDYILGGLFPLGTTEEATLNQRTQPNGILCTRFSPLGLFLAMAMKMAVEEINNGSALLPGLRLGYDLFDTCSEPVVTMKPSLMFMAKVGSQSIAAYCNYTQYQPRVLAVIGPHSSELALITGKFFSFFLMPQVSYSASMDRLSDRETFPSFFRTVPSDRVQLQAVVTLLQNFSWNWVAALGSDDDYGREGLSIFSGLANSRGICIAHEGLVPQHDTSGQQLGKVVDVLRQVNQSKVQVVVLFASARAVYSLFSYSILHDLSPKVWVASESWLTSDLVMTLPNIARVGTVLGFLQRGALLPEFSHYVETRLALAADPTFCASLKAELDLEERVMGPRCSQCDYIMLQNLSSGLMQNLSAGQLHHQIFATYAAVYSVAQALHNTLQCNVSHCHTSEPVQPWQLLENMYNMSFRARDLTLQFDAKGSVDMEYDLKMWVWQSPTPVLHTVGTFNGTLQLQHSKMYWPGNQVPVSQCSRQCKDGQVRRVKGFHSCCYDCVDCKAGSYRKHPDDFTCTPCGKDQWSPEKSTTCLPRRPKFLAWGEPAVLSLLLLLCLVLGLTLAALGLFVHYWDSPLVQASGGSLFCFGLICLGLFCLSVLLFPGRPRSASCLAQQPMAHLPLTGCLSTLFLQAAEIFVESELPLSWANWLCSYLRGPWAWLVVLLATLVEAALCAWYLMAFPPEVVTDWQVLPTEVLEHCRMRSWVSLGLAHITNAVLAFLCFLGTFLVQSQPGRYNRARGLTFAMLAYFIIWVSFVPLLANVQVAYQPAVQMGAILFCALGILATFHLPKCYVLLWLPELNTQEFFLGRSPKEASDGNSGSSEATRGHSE
Assay: Calcium mobilization (FLIPR), rTas1r3-V738A variant
Format: cell-based
Conditions: asp 15 mM; cyc 30 mM; neo 0.1 mM; sac 10 mM; suc 100 mM; stev 1 mM
Source text: Receptor mutants were generated by site directed mutagenesis according to the QuikChange protocol (Stratagene). The forward and reverse complement primers contained the desired mutations and annealed to the same sequence on opposite strands of the plasmids. The following rTas1r3 receptor variants were generated: m1: S576L; m2: R632Q, S635P, S637Q; m3: M644L A645S; m4: A702T; m5: Q717H, V718M, V723A, E725V; m6: L735F, V738A, I740A. m6/1: V738A, I740A, m6/2: L735F, I740A, m6/3: L735F, V738A. m7: A793V, Y794L, Q795R. Subsequently a rTas1r3-V738A variant was generated. All constructs were checked by sequencing.
The cDNAs were transiently transfected into HEK293T cells stably expressing the chimeric G-protein subunit Gα16gust44 [20] using Lipofectamine 2000 (Invitrogen) according to the manufacturer's protocol. 3–4 hours after transfection, DMEM was replaced by low-glucose DMEM supplemented with GlutaMAX and 10% dialyzed FBS (Invitrogen). 22–44 hours later, cells were loaded for 1 hour with the calcium sensitive dye Fluo4-AM (2 μg/ml in DMEM, Molecular Probes). […] Calcium mobilization was monitored by an automated fluorometric imaging plate reader (FLIPR, Molecular Devices). Ligands (Sigma-Aldrich, Merck) were dissolved in C1 solution. All data were collected from at least two independent experiments carried out in triplicate. The obtained calcium signals were corrected for the response of mock transfected cells and normalized to the fluorescence of cells prior to the stimulus using ΔF/F=(F-F0)/F0.
(a, b) Responses of cells co-transfected with rTas1r2 and rTas1r3 mutants to stimulation with 1 mM stevioside. […] All sweeteners were used at concentrations which were close to the maximal obtainable signal.

activation of receptor (calcium response) | Structure (SMILES)
activated | C=C1C[C@@]23CC[C@H]4[C@@](C)(CCC[C@@]4(C)C(=O)O[C@@H]4O[C@H](CO)[C@@H](O)[C@H](O)[C@H]4O)[C@@H]2CC[C@]1(O[C@@H]1O[C@H](CO)[C@@H](O)[C@H](O)[C@H]1O[C@@H]1O[C@H](CO)[C@@H](O)[C@H](O)[C@H]1O)C3 [stevioside]
not | O=S(=O)(O)NC1CCCCC1 [cyclamate]
not | COc1ccc(CCC(=O)c2c(O)cc(O[C@@H]3O[C@H](CO)[C@@H](O)[C@H](O)[C@H]3O[C@@H]3O[C@@H](C)[C@H](O)[C@@H](O)[C@H]3O)cc2O)cc1O [neohesperidine dihydrochalcone]
not | COC(=O)[C@H](Cc1ccccc1)NC(=O)[C@@H](N)CC(=O)O [aspartame] (HELM PEPTIDE1{D.F.[CO[*:1]]}$$$$V2.0)
activated | OC[C@H]1O[C@@](CO)(O[C@H]2O[C@H](CO)[C@@H](O)[C@H](O)[C@H]2O)[C@@H](O)[C@@H]1O [sucrose]
